Source: ChEMBL document CHEMBL5465560, “Selectivity Literature for EUbOPEN Chemogenomic Library” (2024)
Blank lines part the entries; values can stand above or below the molecule they belong to.

How the values were obtained:
[1] = biological target: T1, Ephrin type-B receptor 1 (Homo sapiens) (UniProt P54762); test: Selectivity interaction (Upstate Kinase Profiler service (Millipore)) EUB0000056c EPHB1; conditions: at 1 µM
T1 sequence (whole entry): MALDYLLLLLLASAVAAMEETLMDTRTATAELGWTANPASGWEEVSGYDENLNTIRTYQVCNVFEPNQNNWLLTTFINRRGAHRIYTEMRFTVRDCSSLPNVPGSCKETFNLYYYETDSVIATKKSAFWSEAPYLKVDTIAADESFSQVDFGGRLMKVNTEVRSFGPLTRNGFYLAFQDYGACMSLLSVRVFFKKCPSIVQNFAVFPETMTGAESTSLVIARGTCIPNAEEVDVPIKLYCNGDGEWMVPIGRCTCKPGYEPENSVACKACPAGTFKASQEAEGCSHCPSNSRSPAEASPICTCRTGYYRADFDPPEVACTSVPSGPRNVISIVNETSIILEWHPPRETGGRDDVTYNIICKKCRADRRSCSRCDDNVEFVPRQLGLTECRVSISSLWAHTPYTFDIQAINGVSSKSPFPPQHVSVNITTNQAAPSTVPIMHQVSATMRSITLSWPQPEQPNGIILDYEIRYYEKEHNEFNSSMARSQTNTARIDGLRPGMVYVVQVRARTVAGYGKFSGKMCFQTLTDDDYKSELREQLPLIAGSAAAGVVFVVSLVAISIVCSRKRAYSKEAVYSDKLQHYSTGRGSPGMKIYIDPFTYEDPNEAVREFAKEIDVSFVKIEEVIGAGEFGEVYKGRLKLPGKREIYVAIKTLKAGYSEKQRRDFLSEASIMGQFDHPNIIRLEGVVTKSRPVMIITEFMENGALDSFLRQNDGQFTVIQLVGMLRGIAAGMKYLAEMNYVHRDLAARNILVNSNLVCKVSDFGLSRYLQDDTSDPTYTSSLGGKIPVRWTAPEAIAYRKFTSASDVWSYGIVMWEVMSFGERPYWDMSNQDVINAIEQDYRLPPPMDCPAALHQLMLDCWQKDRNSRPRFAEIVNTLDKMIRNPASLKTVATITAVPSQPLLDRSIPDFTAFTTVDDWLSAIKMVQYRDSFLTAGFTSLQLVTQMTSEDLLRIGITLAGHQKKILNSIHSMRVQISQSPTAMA

[2] = biological target: T2, Ephrin type-A receptor 3 (Homo sapiens) (UniProt P29320); test: Selectivity interaction (ProQinase) EUB0000171b EPHA3
T2 sequence (whole entry): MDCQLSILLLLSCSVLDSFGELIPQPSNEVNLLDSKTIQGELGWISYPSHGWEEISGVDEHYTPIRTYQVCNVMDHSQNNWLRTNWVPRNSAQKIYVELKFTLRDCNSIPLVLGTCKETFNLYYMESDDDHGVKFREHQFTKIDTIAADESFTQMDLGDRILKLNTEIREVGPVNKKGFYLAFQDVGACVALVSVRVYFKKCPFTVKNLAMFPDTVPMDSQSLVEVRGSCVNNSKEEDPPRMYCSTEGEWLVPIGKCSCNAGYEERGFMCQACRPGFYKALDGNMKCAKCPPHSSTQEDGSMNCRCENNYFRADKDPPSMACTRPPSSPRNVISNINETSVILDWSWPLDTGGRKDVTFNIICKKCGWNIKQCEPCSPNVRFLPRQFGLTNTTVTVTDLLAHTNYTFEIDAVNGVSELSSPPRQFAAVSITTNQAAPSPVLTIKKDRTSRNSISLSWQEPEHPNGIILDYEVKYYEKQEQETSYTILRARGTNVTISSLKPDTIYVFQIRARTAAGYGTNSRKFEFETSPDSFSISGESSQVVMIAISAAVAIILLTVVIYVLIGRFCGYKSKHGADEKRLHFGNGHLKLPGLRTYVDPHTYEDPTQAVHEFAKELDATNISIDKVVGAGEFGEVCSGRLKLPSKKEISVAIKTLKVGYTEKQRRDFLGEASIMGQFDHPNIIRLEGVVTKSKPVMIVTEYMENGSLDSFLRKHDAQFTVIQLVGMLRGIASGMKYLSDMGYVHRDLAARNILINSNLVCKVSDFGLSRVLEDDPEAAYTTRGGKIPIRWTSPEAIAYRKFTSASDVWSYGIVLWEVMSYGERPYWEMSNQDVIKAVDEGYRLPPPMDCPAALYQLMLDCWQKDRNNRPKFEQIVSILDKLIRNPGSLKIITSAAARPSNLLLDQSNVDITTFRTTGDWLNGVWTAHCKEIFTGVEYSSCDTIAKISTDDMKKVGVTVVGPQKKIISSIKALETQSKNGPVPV

[3] = biological target: Kappa-type opioid receptor (Homo sapiens, UniProt P41145); test: Selectivity interaction (Panel of kinases, GPCRs, ion channels and transporters (enzymatic assay)) EUB0000223bCl OPRK1
[4] = biological target: Ribosomal protein S6 kinase beta-1 (Homo sapiens, UniProt P23443); test: Selectivity interaction (Kinase panel (KiNativ target engagement assay in Jurkat cells)) EUB0001635a RPS6KB1; assay type: cell-based; conditions: at 1 µM
[5] = biological target: T3, Serine/threonine-protein kinase DCLK1 (Homo sapiens) (UniProt O15075); test: Selectivity interaction (KinomeScan (DiscoverX)) EUB0000092b DCLK1; conditions: at 10 µM
T3 sequence (whole entry): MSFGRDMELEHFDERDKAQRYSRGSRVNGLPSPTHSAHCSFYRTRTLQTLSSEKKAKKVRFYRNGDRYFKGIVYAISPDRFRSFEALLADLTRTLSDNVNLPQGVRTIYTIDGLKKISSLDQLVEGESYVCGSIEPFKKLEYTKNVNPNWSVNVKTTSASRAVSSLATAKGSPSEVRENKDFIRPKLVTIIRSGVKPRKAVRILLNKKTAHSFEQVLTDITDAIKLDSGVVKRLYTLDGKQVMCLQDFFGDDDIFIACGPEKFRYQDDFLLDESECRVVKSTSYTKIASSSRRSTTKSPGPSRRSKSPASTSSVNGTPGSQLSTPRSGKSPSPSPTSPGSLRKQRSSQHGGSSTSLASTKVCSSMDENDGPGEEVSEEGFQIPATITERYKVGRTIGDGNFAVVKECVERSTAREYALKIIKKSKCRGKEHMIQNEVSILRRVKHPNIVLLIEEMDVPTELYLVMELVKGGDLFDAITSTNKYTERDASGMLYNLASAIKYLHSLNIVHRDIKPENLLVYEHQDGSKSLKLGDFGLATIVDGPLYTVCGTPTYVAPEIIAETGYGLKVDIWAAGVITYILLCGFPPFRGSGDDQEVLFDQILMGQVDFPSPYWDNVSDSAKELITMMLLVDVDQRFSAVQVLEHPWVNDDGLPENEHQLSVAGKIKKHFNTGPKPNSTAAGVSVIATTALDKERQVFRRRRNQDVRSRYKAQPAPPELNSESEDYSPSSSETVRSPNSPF

Chain of Ribosomal protein S6 kinase beta-1 (P23443 whole entry, looked up): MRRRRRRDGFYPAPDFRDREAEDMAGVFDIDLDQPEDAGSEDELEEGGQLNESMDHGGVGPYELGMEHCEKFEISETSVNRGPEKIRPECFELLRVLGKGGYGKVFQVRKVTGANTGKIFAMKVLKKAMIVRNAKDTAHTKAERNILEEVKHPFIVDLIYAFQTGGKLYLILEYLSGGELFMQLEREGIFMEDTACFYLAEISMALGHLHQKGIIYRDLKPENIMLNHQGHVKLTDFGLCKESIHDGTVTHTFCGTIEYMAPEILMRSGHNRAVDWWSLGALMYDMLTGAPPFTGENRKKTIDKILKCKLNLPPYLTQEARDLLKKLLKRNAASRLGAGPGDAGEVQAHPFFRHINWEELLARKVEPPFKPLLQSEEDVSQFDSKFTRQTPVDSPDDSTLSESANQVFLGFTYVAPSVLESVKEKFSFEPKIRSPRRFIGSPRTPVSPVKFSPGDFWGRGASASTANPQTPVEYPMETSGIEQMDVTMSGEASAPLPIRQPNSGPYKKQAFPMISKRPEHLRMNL
Chain of Kappa-type opioid receptor (P41145 whole entry): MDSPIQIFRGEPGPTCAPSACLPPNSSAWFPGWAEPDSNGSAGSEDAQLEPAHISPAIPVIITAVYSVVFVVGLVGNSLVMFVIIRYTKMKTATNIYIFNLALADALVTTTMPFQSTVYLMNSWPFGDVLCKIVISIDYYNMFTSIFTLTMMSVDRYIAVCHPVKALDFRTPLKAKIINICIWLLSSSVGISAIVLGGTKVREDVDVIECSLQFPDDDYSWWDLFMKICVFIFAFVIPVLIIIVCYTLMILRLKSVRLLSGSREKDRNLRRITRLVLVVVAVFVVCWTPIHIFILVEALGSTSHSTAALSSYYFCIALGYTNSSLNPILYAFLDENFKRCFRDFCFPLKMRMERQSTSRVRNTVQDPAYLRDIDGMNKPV

% of inhibition [1]: 9%
SMILES: Cc1ccc(-c2ccc3c(ccc4sc5c(c43)NC[C@@H](C)NC5=O)n2)cn1

% of control ([2]; at 1 µM): 98%
% of control ([2]; at 5 µM): 89%
SMILES: C=CC(=O)Nc1cccc(C(=O)Nc2ccc(Nc3cc(-c4[nH]c(SC)nc4C)ccn3)cc2)c1

SMILES: COc1cc(C(=O)N2CC[C@@H](O)[C@@H](N)C2)cc2nc(-c3cc4ccccc4n3CC3CC3)n(C)c12
pXC50 [3]: 4.1 M

SMILES: C=CC(=O)Nc1ccc(C(=O)Nc2[nH]nc3c2CN(C(=O)N[C@H](CN(C)C)c2ccccc2)C3(C)C)cc1
% of engagement ([4]; Selectivity number of off-targets 0.0, Selectivity number of targets 233.0, Source Knowledge https://www.sciencedirect.com/science/article/pii/S2451945619300674?via%3Dihub): 7.5%
% of engagement [4]: -9.4%

SMILES: CCC(=O)N1CCN(c2ccc(-n3c(=O)ccc4cnc5ccc(-c6cnc7ccccc7c6)cc5c43)cc2C(F)(F)F)CC1
% of control [5]: 100%
